# From US20250176602A1, “Composition for Proliferation of Bacteroides uniformis in the Intestinal Tract” (Asahi Group Holdings, Ltd., priority 2019, published 2025)
# Assay: Exercise performance test, 10 km SPIN CYCLE travel time (Example 3)
# Format: in vivo, human
# Conditions: about 200 mg/day
# Description: As test subjects, 21 healthy males at the ages of 20 to 49 who have exercise habits of conducting exercise with an intensity of 5 METs or more for 30 minutes or more once or twice a week and who can continue the exercise habits during the test period as well were selected.
# Among the 21 test subjects, 10 test subjects were selected as an α-cyclodextrin (αCD) intake group, and the remaining 11 test subjects were selected as a placebo group. The test subjects themselves were not informed who belonged to which group.
# Test Supplements (tablets) having compositions described in Table 1 below were used. One tablet of the test supplements was of about 250 mg.
# Each test subject of the αCD intake group and the placebo group was asked to take in 3 tablets of the above test supplements once a day at any timing. That is, each test subject of the α-cyclodextrin intake group was asked to take in about 200 mg of α-cyclodextrin per day.
# The intake period for the test supplements was set to 9 weeks, and change in gut flora was evaluated, a questionnaire on fatigue feeling was conducted, and change in travel time was evaluated, before the start of the intake, after 4-week intake, and after 8-week intake. […]
smiles,measurement,setting,value
OC[C@H]1O[C@@H]2O[C@H]3[C@H](O)[C@@H](O)[C@@H](O[C@H]4[C@H](O)[C@@H](O)[C@@H](O[C@H]5[C@H](O)[C@@H](O)[C@@H](O[C@H]6[C@H](O)[C@@H](O)[C@@H](O[C@H]7[C@H](O)[C@@H](O)[C@@H](O[C@H]1[C@H](O)[C@H]2O)O[C@@H]7CO)O[C@@H]6CO)O[C@@H]5CO)O[C@@H]4CO)O[C@@H]3CO [α-cyclodextrin],travel time for 10 km,"after 4-week intake, compared with same group before intake",significantly shortened
same,travel time for 10 km,"after 8-week intake, compared with same group before intake and placebo group after 8-week intake",significantly shortened
